We go through 17 compounds from ChEMBL document CHEMBL4308920, “Optimizing the Pharmacological Profile of New Bifunctional Antihyperlipidemic/Antioxidant Morpholine Derivatives” (ACS Med Chem Lett, 2019).

In assay [1] the target is T1, Squalene synthase (Rattus norvegicus, UniProt Q02769).
T1 sequence (Q02769 whole entry): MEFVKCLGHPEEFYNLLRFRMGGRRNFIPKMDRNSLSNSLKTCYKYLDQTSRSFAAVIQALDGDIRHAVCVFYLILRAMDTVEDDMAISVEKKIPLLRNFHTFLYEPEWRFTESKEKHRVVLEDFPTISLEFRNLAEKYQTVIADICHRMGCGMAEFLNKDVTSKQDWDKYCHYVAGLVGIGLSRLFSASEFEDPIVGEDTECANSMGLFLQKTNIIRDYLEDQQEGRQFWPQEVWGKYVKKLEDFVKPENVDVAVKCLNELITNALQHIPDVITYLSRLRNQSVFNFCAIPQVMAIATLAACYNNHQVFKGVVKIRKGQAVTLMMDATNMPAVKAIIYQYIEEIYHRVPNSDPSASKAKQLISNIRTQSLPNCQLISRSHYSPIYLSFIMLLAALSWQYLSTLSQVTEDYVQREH
The experiment in a line: Inhibition of SQS in rat liver microsomes assessed as reduction in [3H]FPP conversion to squalene preincubated for 10 mins followed by [3H]FPP addition and measured after 10 mins by scintillation counting method. For orientation: Microsomes from liver hold many membrane-bound enzymes, among them those of drug oxidation.

The test system of another assay is Liver. The experiment in a line: Antioxidant activity in rat hepatic microsomes assessed as reduction in ferrous salt/ascorbic acid-induced lipid peroxidation of membrane lipids by measuring TBARS level after 45 mins by spectrophotometric method. The format is functional, Microsome. Particulars: 0.75 h.
Assay [2] relates to Mus musculus. Description: Antihyperlipidemic activity in C57BL/6 mouse model of Triton WR1339-induced hyperlipidemia assessed as reduction in plasma total triglyceride level at 84 umol/kg, ip measured after 24 hrs relative to control. Format: functional. Further details: scale not given: the % may be the effect or the level left.
Assay [3] deals with Mus musculus. Description: Antihypercholesterolemic activity in C57BL/6 mouse model of Triton WR1339-induced hyperlipidemia assessed as reduction in plasma total cholesterol level at 84 umol/kg, ip measured after 24 hrs relative to control. Format: functional. More on the design: scale not given: the % may be the effect or the level left.
For assay [4], the system named is Mus musculus. The experiment in a line: Anti-inflammatory activity in C57BL/6 mouse assessed as inhibition of carrageenan-induced hind paw edema at 300 umol/kg, ip treated immediately after carrageenan challenge measured after 3.5 hrs relative to control. Format: functional. Particulars: C57BL/6, ip. (In general: In the carrageenan paw model, swelling and tenderness develop within hours.)

For assay [5], the target named is T2, Squalene synthase (Rattus norvegicus) (UniProt Q02769).
T2 sequence (whole entry): T1 sequence (Q02769 whole entry)
The experiment in a line: Potency index, ratio of 2-(4-(6-methoxynaphthalen-2-yl)phenyl)-4-methylmorpholin-2-ol hydrobromide IC50 to compound IC50 for inhibition of SQS in rat liver microsomes.

Assay [6] concerns the target T2, Squalene synthase (Rattus norvegicus). Description: Potency index, ratio of 2-(biphenyl-4-yl)-4-methylmorpholin-2-ol hydrobromide IC50 to compound IC50 for inhibition of SQS in rat liver microsomes.
Assay [7] has the same target. The experiment in a line: Potency index, ratio of 4-methyl-2-(4-(naphthalen-2-yl)phenyl)morpholin-2-ol hydrobromide IC50 to compound IC50 for inhibition of SQS in rat liver microsomes.
The test system of assay [8] is Mus musculus. Description: In vivo antioxidant activity in C57BL/6 mouse model of Triton WR1339-induced hyperlipidemia assessed as increase in total antioxidant capacity in plasma at 84 umol/kg, ip measured after 24 hrs relative to control. The format is functional.
Assay [9] concerns the target T1, Squalene synthase. Description: Inhibition of SQS in rat liver microsomes assessed as reduction in [3H]FPP conversion to squalene after 45 mins by liquid scintillation counting method.

On to `COc1ccc2cc(-c3ccc(C4(OCCCO)CN(C)CCO4)cc3)ccc2c1` (centres undefined), for which the IC50 (in general, the concentration needed to halve the response being measured) on Squalene synthase [1] stood at 29.4 µM; in the assay with Liver, 211 µM.

`Br.CN1CCOC(OCCCS)(c2ccc(-c3ccc4ccccc4c3)cc2)C1` (centres undefined): the Activity in the assay on Mus musculus [2] came out at 25%; in the assay with Mus musculus [3] it was 67%. Moreover, the values for the IC50 at Squalene synthase [1] and with Liver were 0.014 µM and 198 µM, respectively. Also, in the assay on Mus musculus [4], the inhibition in vivo (usually the change of the read-out against control, counted positive when it falls) at 300 µmol/kg was 40%. For the same compound, the Ratio IC50 in [5], in [6] and in assay [7] was under 136 throughout. The TAC in the assay with Mus musculus [8] was found to be 20%.

Take `CN1CCOC(c2ccc(-c3ccccc3)cc2)C1` (centres undefined): the IC50 was over 100 µM on Squalene synthase [1] and 86.8 µM with Liver.

For `COc1ccc2cc(-c3ccc(C4(OCCCO[N+](=O)[O-])CN(C)CCO4)cc3)ccc2c1` (centres undefined), the values for the IC50 on Squalene synthase [1] and with Liver were 16.1 µM and 45 µM, respectively.

With `CN1CCSC(c2ccc3ccccc3c2)C1` (centres undefined), the 50% inhibitory concentration (IC50) at Squalene synthase [1] was 25.2 µM; in the assay on Liver, 178 µM.

Take `Cc1c(C)c2c(c(C)c1O)CCC(C)(C(=O)O)O2` (centres undefined) [TROLOX]: the IC50 with Liver came out at 25 µM.

Turning to `CN1CCOC(OCCCO)(c2ccc(-c3ccc4ccccc4c3)cc2)C1` (centres undefined), the results for the IC50 at Squalene synthase [1] and with Liver were 6.2 µM and 259 µM, respectively.

Regarding `CN1CC(c2ccc(-c3ccccc3)cc2)OC2CCCCC21` (centres undefined), the half-inhibitory concentration (IC50) amounted to 20.8 µM at Squalene synthase [1] and 218 µM in the assay on Liver.

In the case of `CN1C=C(c2ccc(-c3ccccc3)cc2)OC2CCCCC21` (centres undefined), the results for the IC50 on Squalene synthase [1] and in the assay with Liver were 42 µM and 65.1 µM, respectively.

Regarding `c1ccc(-c2ccc(C3CN4CCCCC4CO3)cc2)cc1` (centres undefined), the IC50 is 7.5 µM on Squalene synthase [1] and 179 µM in the assay on Liver.

Turning to `CN1CCOC(OCCCS)(c2ccc(-c3ccccc3)cc2)C1` (centres undefined), the values for the IC50 on Squalene synthase [1] and with Liver were 2.7 µM and 372 µM, respectively. In addition, the Ratio IC50 in assay [5], in [6] and in assay [7] was under 136 each time.

On to `CN1CCSC(c2ccc(-c3ccccc3)cc2)C1` (centres undefined), for which the concentration for half-maximal inhibition (IC50) amounted to 15 µM on Squalene synthase [1] and 299 µM in the assay on Liver.

Regarding `CN1CCOC(OCCCO[N+](=O)[O-])(c2ccc(-c3ccc4ccccc4c3)cc2)C1` (centres undefined), the figures for the IC50 at Squalene synthase [1] and with Liver were 0.51 µM and 75.8 µM, respectively.

Consider `CC(C)(Sc1cc(C(C)(C)C)c(O)c(C(C)(C)C)c1)Sc1cc(C(C)(C)C)c(O)c(C(C)(C)C)c1` [PROBUCOL], for which, in the assay with Liver, the IC50 is over 500 µM.

As to `COc1ccc2cc(-c3ccc(C4(OCCCS)CN(C)CCO4)cc3)ccc2c1` (centres undefined), the values for the concentration for half-maximal inhibition (IC50) on Squalene synthase [1] and in the assay with Liver were 0.16 µM and 147 µM, respectively. Also, the Ratio IC50 in assay [5], in assay [6] and in assay [7] was under 136 in each case.

As for `COc1cccc([C@H]2O[C@H](CC(=O)N3CCC(CC(=O)O)CC3)C(=O)N(CC(C)(C)COC(C)=O)c3ccc(Cl)cc32)c1OC` [LAPAQUISTAT ACETATE], the IC50 at Squalene synthase [9] was found to be 78 nM.

As for `CN1CCOC(OCCCO)(c2ccc(-c3ccccc3)cc2)C1` (centres undefined), the values for the IC50 on Squalene synthase [1] and in the assay on Liver were 24.9 µM and 333 µM, respectively.
